From US7135466B2 (Kirin Beer Kabushiki Kaisha, priority 1999, dated 2006)
Where two headings read alike, the source gives them in different places.

What was measured:
PDGF-Ra = molecular target: T1, PDGF-Ra (Homo sapiens, UniProt P16234); test: Inhibitory activity against PDGF-Ra phosphorylation by PDGF-AA stimulation using G292; format: cell-based; conditions: for IC50: > means inhibition at indicated concentration not more than 50%, < and << not less than 50%, read-out: PDGF (E) IC50; for inhibition at 0.1 µM: G292, at 100 nM, read-out: PDGF (E) inhibition (%) at 100 nM
T1 construct: host or cells: G-292 human osteosarcoma cells
Outline: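 In G-292 osteosarcoma cells kept overnight in 0.1% FBS, compound exposure (1 hr, 37 °C) preceded PDGF-AA stimulation at 50 ng/ml for 5 min; receptor phosphotyrosine was then detected by PY-20 capture ELISA.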

c-kit = molecular target: T2, c-kit (Homo sapiens, UniProt P10721); test: Inhibitory activity against c-kit autophosphorylation (MO7e cells, h-SCF); format: cell-based; conditions: for IC50: MO7e cells, read-out: c-kit IC50; for inhibition at 1 µM: Mo7e
T2 construct: MO7e (human megakaryocytic leukemia cell line) which had been arrested for 20 hr; endogenous in cells; host or cells: MO7e human megakaryocytic leukemia cell line
Outline: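 MO7e cells, arrested for 20 hr, were pretreated with test compound in DMSO for 1 hr and then stimulated with 50 ng/ml h-SCF for 5 min before lysis. Lysates were captured on immobilized anti-phosphotyrosine PY-20, probed with anti-c-kit antibody and HRP anti-rabbit IgG, and read colorimetrically at 450 nm.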

[1] = figure in parentheses in −( ), at 1000 nM
[2] = figure within parentheses in >100( )
[3] = figure within parentheses in −( ) or >1000( ), at 1000 nM

T1 sequence (P16234 24-1089): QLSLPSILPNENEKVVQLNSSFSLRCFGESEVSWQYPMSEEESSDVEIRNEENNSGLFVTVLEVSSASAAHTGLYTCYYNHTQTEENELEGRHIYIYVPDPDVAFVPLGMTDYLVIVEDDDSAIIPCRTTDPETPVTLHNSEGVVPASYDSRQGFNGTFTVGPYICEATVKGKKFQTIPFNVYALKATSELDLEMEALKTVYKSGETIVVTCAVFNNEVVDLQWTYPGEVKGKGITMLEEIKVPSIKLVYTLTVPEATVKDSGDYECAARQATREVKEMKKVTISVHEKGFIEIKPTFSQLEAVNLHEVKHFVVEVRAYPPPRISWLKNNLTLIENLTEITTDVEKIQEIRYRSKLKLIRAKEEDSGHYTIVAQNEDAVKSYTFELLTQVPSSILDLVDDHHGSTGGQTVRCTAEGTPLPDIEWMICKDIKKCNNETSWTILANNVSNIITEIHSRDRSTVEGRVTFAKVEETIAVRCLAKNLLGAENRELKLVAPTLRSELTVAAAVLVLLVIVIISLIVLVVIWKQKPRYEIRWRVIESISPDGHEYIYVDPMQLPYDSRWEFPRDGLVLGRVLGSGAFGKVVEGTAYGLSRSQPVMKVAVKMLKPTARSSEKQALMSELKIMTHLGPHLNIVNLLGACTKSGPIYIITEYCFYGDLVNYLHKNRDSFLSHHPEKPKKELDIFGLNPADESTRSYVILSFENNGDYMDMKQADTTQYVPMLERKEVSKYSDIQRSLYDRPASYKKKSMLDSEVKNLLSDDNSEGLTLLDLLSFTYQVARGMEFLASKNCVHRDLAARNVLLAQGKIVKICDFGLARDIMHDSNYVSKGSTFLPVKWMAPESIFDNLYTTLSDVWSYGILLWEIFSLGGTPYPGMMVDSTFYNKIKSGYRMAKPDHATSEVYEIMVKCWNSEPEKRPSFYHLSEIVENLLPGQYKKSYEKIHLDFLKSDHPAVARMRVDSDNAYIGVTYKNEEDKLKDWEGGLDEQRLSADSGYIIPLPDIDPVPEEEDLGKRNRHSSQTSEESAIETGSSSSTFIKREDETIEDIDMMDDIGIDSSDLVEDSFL
T2 sequence (P10721 26-976): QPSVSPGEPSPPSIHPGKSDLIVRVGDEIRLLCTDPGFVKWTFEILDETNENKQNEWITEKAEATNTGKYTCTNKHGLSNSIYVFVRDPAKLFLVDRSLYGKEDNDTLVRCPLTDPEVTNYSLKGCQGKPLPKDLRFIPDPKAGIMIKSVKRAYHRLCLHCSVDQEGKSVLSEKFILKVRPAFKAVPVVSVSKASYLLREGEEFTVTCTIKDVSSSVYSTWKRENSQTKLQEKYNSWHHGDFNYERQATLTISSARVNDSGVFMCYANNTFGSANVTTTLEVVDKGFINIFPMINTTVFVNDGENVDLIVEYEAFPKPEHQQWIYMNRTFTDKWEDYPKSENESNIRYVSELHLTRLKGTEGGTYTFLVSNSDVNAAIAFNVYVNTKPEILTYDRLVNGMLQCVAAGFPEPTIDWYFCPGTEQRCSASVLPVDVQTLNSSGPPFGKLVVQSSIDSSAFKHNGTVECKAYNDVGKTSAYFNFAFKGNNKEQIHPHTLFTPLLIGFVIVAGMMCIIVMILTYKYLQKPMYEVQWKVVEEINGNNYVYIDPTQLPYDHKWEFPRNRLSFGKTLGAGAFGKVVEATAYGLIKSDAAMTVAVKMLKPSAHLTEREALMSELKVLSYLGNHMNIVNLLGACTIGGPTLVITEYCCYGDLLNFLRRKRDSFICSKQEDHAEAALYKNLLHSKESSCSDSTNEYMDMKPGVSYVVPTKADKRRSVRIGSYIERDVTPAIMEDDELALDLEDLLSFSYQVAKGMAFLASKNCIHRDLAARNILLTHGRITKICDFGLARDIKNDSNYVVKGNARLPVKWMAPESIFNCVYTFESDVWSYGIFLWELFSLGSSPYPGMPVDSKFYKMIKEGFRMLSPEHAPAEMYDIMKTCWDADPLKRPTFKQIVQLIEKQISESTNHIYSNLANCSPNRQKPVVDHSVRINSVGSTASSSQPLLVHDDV

COc1cc2ncnc(Oc3ccc(NC(=O)OCCc4ccccc4)c(Cl)c3)c2cc1OC [Example 339, Phenethyl N-{2-chloro-4-[(6,7-dimethoxy-4-quinazolinyl)oxy]phenyl}carbamate]
IC50 (PDGF-Ra; Pharmacological Test Example 1): 38 nM
IC50 (c-kit; h-SCF 50 ng/ml): 197 nM

COc1cc2nccc(Oc3ccc(NC(=S)NC(=O)c4cccc(C)c4C)cc3Cl)c2cc1OC [Example 1018, N-{3-Chloro-4-[(6,7-dimethoxy-4-quinolyl)oxy]phenyl}-N′-(2,3-dimethylbenzoyl)thiourea]
IC50 (PDGF-Ra): 10 nM
IC50 (c-kit; h-SCF stimulation): 320 nM

COc1cc2nccc(Oc3ccc(NC(=S)NC(=O)COc4ccccc4Cl)cc3Cl)c2cc1OC [Example 714, N-{3-Chloro-4-[(6,7-dimethoxy-4-quinolyl)oxy]phenyl}-N′-[2-(2-chlorophenoxy)acetyl]thiourea]
IC50 (PDGF-Ra): 16 nM
IC50 (c-kit; 50 ng/ml h-SCF): 248 nM

COc1cc2ncnc(Oc3ccc(NC(=O)NC4CCN(Cc5ccccc5)CC4)c([N+](=O)[O-])c3)c2cc1OC [Example 606, N-{4-[(6,7-Dimethoxy-4-quinazolinyl)oxy]-2-nitrophenyl}-N′-[4-(N-benzyl)piperidinyl]urea]
IC50 (PDGF-Ra): 18 nM
IC50 (c-kit; 50 ng/ml h-SCF): 263 nM

COc1cc2nccc(Oc3cc(C)c(NCCCOc4ccccc4Cl)cc3C)c2cc1OC [Example 892, N-[3-(2-Chlorophenoxy)propyl]-N-{4-[(6,7-dimethoxy-4-quinolyl)oxy]-2,5-dimethylphenyl}amine]
IC50 (PDGF-Ra): > 100 nM
inhibition at 0.1 µM (PDGF-Ra; figure in parentheses in >100( )): 25%
inhibition at 1 µM (c-kit; [1]): 30%

COc1cc2ncnc(Oc3ccc(NC(=S)NC(=O)Cc4ccccc4C)cc3)c2cc1OC [Example 703, N-{4-[(6,7-Dimethoxy-4-quinazolinyl)oxy]phenyl}-N′-[2-(2-methylphenyl)acetyl]thiourea]
IC50 (PDGF-Ra): < 10 nM
IC50 (c-kit; 50 ng/ml h-SCF): 375 nM

COc1cc2nccc(Oc3ccc(NC(=O)OCC4CCC4)c(C)c3C)c2cc1OC [Example 387, Cyclobutylmethyl N-{4-[(6,7-dimethoxy-4-quinolyl)oxy]-2,3-dimethylphenyl}carbamate]
IC50 (PDGF-Ra; Pharmacological Test Example 1): < 10 nM
IC50 (c-kit; h-SCF 50 ng/ml): 31 nM

COc1cccc(OCCCOC(=O)Nc2ccc(Oc3ncnc4cc(OC)c(OC)cc34)cc2Cl)c1 [Example 51, 3-(3-Methoxyphenoxy)propyl N-{2-chloro-4-[(6,7-dimethoxy-4-quinazolinyl)oxy]phenyl}carbamate]
IC50 (PDGF-Ra; Pharmacological Test Example 1): 14 nM
IC50 (c-kit; h-SCF 50 ng/ml): 270 nM

COc1cc2nccc(Oc3ccc(NC(=S)NC(=O)c4ccc(CN5CCOCC5)cc4)cc3)c2cc1OC [Example 1153, N-{4-[(6,7-Dimethoxy-4-quinolyl)oxy]phenyl}-N′-[4-(morpholinomethyl)benzoyl]thiourea]
IC50 (PDGF-Ra): 43 nM
inhibition at 1 µM (c-kit; [1]): 13%

COc1cc2nccc(Oc3ccc(NC(=O)OC4CCCCCC4)cc3)c2cc1OC [Example 286, Cycloheptyl N-{4-[(6,7-dimethoxy-4-quinolyl)oxy]phenyl}carbamate]
IC50 (PDGF-Ra; Pharmacological Test Example 1): < 10 nM
IC50 (c-kit; h-SCF 50 ng/ml): 54 nM

COc1cc2nccc(Oc3cc(C)c(NC(=O)OCCCSc4ccccn4)cc3C)c2cc1OC [Example 174, 3-(2-Pyridylsulfanyl)propyl N-{4-[(6,7-dimethoxy-4-quinolyl)oxy]-2,5-dimethylphenyl}-carbamate]
IC50 (PDGF-Ra; Pharmacological Test Example 1): < 10 nM
IC50 (c-kit; h-SCF 50 ng/ml): 70 nM

CCCC(CCN(CC)CC)OC(=O)Nc1cc(C)c(Oc2ccnc3cc(OC)c(OC)cc23)cc1C (stereo not shown) [Example 442, 1-[2-(Diethylamino)ethyl]butyl N-{4-[(6,7-dimethoxy-4-quinolyl)oxy]-2,5-dimethylphenyl}carbamate]
IC50 (PDGF-Ra): > 100 nM
inhibition at 0.1 µM (PDGF-Ra; [2]): 32%
inhibition at 1 µM (c-kit; [3]): 28%

CCCCc1ccc(OC(=O)Nc2ccc(Oc3ccnc4cc(OC)c(OC)cc34)cc2)cc1 [Example 257, 4-Butylphenyl N-{4-[(6,7-dimethoxy-4-quinolyl)oxy]phenyl}carbamate]
IC50 (PDGF-Ra; Pharmacological Test Example 1): 6 nM
IC50 (c-kit; h-SCF 50 ng/ml): 22 nM

N-{4-[(6,7-Dimethoxy-4-quinolyl)oxy]-2-chlorophenyl}-N′-(1-piperidinyl)urea [Example 595]
IC50 (PDGF-Ra): 46 nM
c-kit inhibition (%) at 1000 nM (c-kit; [3]): −(0) %

COc1cc2nccc(Oc3ccc(NC(=S)NC(=O)c4ccccc4I)cc3F)c2cc1OC [Example 915, N-{4-[(6,7-Dimethoxy-4-quinolyl)oxy]-3-fluorophenyl}-N′-(2-iodobenzoyl)thiourea]
IC50 (PDGF-Ra): 9 nM
IC50 (c-kit; h-SCF stimulation): 240 nM

COc1cc2ncnc(Oc3ccc(NC(=O)OC4CCCCCC4)c([N+](=O)[O-])c3)c2cc1OC [Example 507, Cycloheptyl N-{4-[(6,7-dimethoxy-4-quinazolinyl)oxy]-2-nitrophenyl}carbamate]
IC50 (PDGF-Ra): 44 nM
IC50 (c-kit; 50 ng/ml h-SCF): 787 nM

COc1cc2nccc(Oc3cc(C)c(NC(=S)NCCN(C(C)C)C(C)C)cc3C)c2cc1OC [Example 555, N-{4-[(6,7-Dimethoxy-4-quinolyl)oxy]-2,5-dimethylphenyl}-N′-(2-diisopropylaminoethyl)thiourea]
IC50 (PDGF-Ra): > 100 nM
inhibition at 0.1 µM (PDGF-Ra; [2]): 29%
inhibition at 1 µM (c-kit; [3]): 39%

COc1ccc(OC)c(COC(=O)Nc2cc(C)c(Oc3ccnc4cc(OC)c(OC)cc34)cc2C)c1 [Example 69, 2,5-Dimethoxybenzyl N-{4-[(6,7-dimethoxy-4-quinolyl)oxy]-2,5-dimethylphenyl}carbamate]
IC50 (PDGF-Ra; Pharmacological Test Example 1): 53 nM
IC50 (c-kit; h-SCF 50 ng/ml): 755 nM

COc1cc2nccc(Oc3ccc(NC(=O)OC(C)c4ccc(C)cc4)cc3)c2cc1OC (stereo not shown) [Example 132, 1-(4-Methylphenyl)ethyl N-{4-[(6,7-dimethoxy-4-quinolyl)oxy]phenyl}carbamate]
IC50 (PDGF-Ra; Pharmacological Test Example 1): 26 nM
IC50 (c-kit; h-SCF 50 ng/ml): 301 nM

COc1cc2ncnc(Oc3ccc(NC(=S)NCCCN4CCCCC4C)cc3)c2cc1OC (stereo not shown) [Example 534, N-{4-[(6,7-Dimethoxy-4-quinazolinyl)oxy]phenyl}-N′-{3-[1-(2-methylpiperidinyl)]propyl}thiourea]
IC50 (PDGF-Ra): 51 nM
inhibition at 1 µM (c-kit; [3]): 35%

CCCC(CCC)OC(=O)N(C)c1ccc(Oc2ncnc3cc(OC)c(OC)cc23)cc1Cl [Example 481, 1-Propylbutyl N-{2-chloro-4-[(6,7-dimethoxy-4-quinazolinyl)oxy]phenyl}-N-methylcarbamate]
IC50 (PDGF-Ra): 16 nM
inhibition at 1 µM (c-kit; [3]): 3%

COc1cc2nccc(Oc3ccc(NC(=O)OC4CCOCC4)cc3)c2cc1OC [Example 470, Tetrahydro-2H-4-pyranyl N-{4-[(6,7-dimethoxy-4-quinolyl)oxy]phenyl}carbamate]
IC50 (PDGF-Ra): 26 nM
IC50 (c-kit; 50 ng/ml h-SCF): 128 nM

CCCCOC(=O)Nc1ccc(Oc2ccnc3cc(OC)c(OC)cc23)cc1 [Example 321, Butyl N-{4-[(6,7-dimethoxy-4-quinolyl)oxy]phenyl}carbamate]
IC50 (PDGF-Ra; Pharmacological Test Example 1): < 10 nM
IC50 (c-kit; h-SCF 50 ng/ml): 37 nM

COc1cc2ncnc(Oc3ccc(N(C)C(=O)OC4CCCCCC4)c(Cl)c3)c2cc1OC [Example 482, Cycloheptyl N-{2-chloro-4-[(6,7-dimethoxy-4-quinazolinyl)oxy]phenyl}-N-methylcarbamate]
IC50 (PDGF-Ra): 24 nM
inhibition at 1 µM (c-kit; [3]): 5%

COc1cc2ncnc(Oc3ccc(NC(=S)NC(=O)c4ccc(CCl)cc4)cc3)c2cc1OC [Example 1002, N-[4-(Chloromethyl)benzoyl]-N′-{4-[(6,7-dimethoxy-4-quinazolinyl)oxy]phenyl}thiourea]
IC50 (PDGF-Ra): < 10 nM
inhibition at 1 µM (c-kit; [1]): 16%

COc1cc2nccc(Oc3ccc(NC(=O)OC4CCc5ccccc5C4)c(C)c3C)c2cc1OC (stereo not shown) [Example 293, 1,2,3,4-Tetrahydro-2-naphthalenyl N-{4-[(6,7-dimethoxy-4-quinolyl)oxy]-2,3-dimethylphenyl}carbamate]
IC50 (PDGF-Ra; Pharmacological Test Example 1): < 10 nM
IC50 (c-kit; h-SCF 50 ng/ml): 145 nM

COc1cc2ncnc(Oc3ccc(NC(=S)NCCCn4ccnc4)cc3)c2cc1OC [Example 526, N-{4-[(6,7-Dimethoxy-4-quinazolinyl)oxy]phenyl}-N′-[3-(1-imidazoyl)propyl]thiourea]
IC50 (PDGF-Ra): > 100 nM
inhibition at 0.1 µM (PDGF-Ra; [2]): 46%
IC50 (c-kit; 50 ng/ml h-SCF): 731 nM

COc1cc2nccc(Oc3cc(C)c(NC(=S)NCCCN4CCN(C)CC4)cc3C)c2cc1OC [Example 556, N-{4-[(6,7-Dimethoxy-4-quinolyl)oxy]-2,5-dimethylphenyl}-N′-[3-(4-methylpiperazinyl)propyl]thiourea]
IC50 (PDGF-Ra): > 100 nM
inhibition at 0.1 µM (PDGF-Ra; [2]): 13%
inhibition at 1 µM (c-kit; [3]): 28%

COc1cc2ncnc(Oc3ccc(NC(=S)NC(=O)C4CCCCC4)cc3)c2cc1OC [Example 1180, N-Cyclohexylcarbonyl-N′-{4-[(6,7-dimethoxy-4-quinazolinyl)oxy]phenyl}thiourea]
IC50 (PDGF-Ra): < 10 nM
IC50 (c-kit; h-SCF stimulation): 480 nM

COc1cc2nccc(Oc3ccc(NC(=O)OCc4ccccc4)cc3)c2cc1OC [Example 231, Benzyl N-{4-[(6,7-dimethoxy-4-quinolyl)oxy]phenyl}carbamate]
IC50 (PDGF-Ra; Pharmacological Test Example 1): 1 nM
IC50 (c-kit; h-SCF 50 ng/ml): 86 nM

COc1cc2ncnc(Oc3ccc(NC(=O)NC4CCN(Cc5ccccc5C)C4)c([N+](=O)[O-])c3)c2cc1OC (stereo not shown) [Example 570, N-{4-[(6,7-Dimethoxy-4-quinazolinyl)oxy]-2-nitrophenyl}-N′-[1-(2-methylbenzyl)tetrahydro-1H-3-pyrrolyl]urea]
IC50 (PDGF-Ra): 23 nM
IC50 (c-kit; 50 ng/ml h-SCF): 173 nM
